Assay results from US5436238A, “Halichondrins and related compounds” (President and Fellows of Harvard College, priority 1993, dated 1995).

Assays:
LOX human melanoma cells = test: In vitro growth inhibition, LOX melanoma cells; assay type: cell-based; settings: Table 1, LOX, synthetic halichondrin B
Method: (§1) Synthetic halichondrin B I was tested in growth inhibition assays against several different tumor cell lines to obtain IC50 values. For comparison, the National Cancer Instititute reported growth inhibitory effects of natural halichondrin B against L1210 murine leukemia cells at IC50 =0.3 nM [J. Biol. Chem. 266:15882-15889 (1991)] and Hirata and Uemura reported IC50 =0.08 nM against B-16 murine melanoma cells [Pure Appl. Chem. 58:701-710 (1986)]. Both references are hereby incorporated in their entirety.
In addition, several synthetic halichondrin-related compounds were tested. […] For the structures of compounds 13-16, see FIG. 3.

HL-60 cells = test: In vitro growth inhibition, HL-60 monocytic leukemia cells; assay type: cell-based; settings: HL-60, human monocytic leukemia
Method: as §1

HT-29 cells = test: In vitro growth inhibition, HT-29 colon carcinoma cells; assay type: cell-based; settings: HT-29, human colon carcinoma
Method: as §1

DK-l cells = test: In vitro growth inhibition, DK-l ras-transforming fibroblasts; assay type: cell-based; settings: human ras-transforming fibroblasts
Method: as §1

SK-OV-3 cells = test: In vitro growth inhibition, SK-OV-3 ovarian carcinoma cells; assay type: cell-based; settings: SK-OV-3, human ovarian carcinoma
Method: as §1

Caov-3 cells = test: In vitro growth inhibition, Caov-3 ovarian carcinoma cells; assay type: cell-based; settings: Caov-3, human ovarian carcinoma
Method: as §1

OVCA 433 cells = test: In vitro growth inhibition, OVCA 433 ovarian carcinoma cells; assay type: cell-based; settings: OVCA 433, human ovarian carcinoma
Method: as §1

NIH:OVCAR-3 cells = test: In vitro growth inhibition, NIH:OVCAR-3 ovarian carcinoma cells; assay type: cell-based; settings: NIH:OVCAR-3, human ovarian carcinoma
Method: as §1

MCF-7 cells = test: In vitro growth inhibition, MCF-7 breast carcinoma cells; assay type: cell-based; settings: MCF-7, human breast carcinoma
Method: as §1

MG-63 cells = test: In vitro growth inhibition, MG-63 osteosarcoma cells; assay type: cell-based; settings: MG-63, human osteosarcoma
Method: as §1

[1] = tested on: subcutaneous LOX human melanoma tumors; test: In vivo anti-tumor effect on subcutaneous LOX human melanoma tumors in nude mice
Method: Mice received 1×10^6 LOX cells via s.c. injection on day 0, with complete injection randomization across sexes and treatment groups. On days 3-7 and 10-14, male and female experimental mice received 25 μg/kg of synthetic halichondrin B 1 via i.p. injection in saline; controls received saline alone.

[2] = tested on: L1210 murine leukemia cells; settings: natural halichondrin B, J. Biol. Chem. 266:15882-15889 (1991), read-out: growth inhibitory effects, IC50; cited from earlier work
[3] = tested on: B-16 murine melanoma cells; settings: Pure Appl. Chem. 58:701-710 (1986), read-out: IC50 against B-16 cells; cited from earlier work

In the case of `C=C1C[C@@H]2CC[C@@]34C[C@H]5O[C@H]6[C@@H](O3)[C@H]3O[C@H](CC[C@@H]3O[C@H]6[C@H]5O4)CC(=O)O[C@@H]3[C@@H](C)[C@@H]4O[C@@H]5C[C@]6(C[C@@H]7O[C@]8(C[C@H](C)[C@@H]9O[C@H]([C@@H](O)C[C@@H](O)CO)C[C@@H]9O8)C[C@H](C)[C@@H]7O6)O[C@@H]5C[C@@H]4O[C@H]3C[C@H]3O[C@@H](CC[C@@H]1O2)C[C@@H](C)C3=C` [halichondrin B], the IC50 (LOX human melanoma cells) is reported as 0.08 nM, the IC50 (HL-60 cells) is reported as 0.12 nM and the IC50 (HT-29 cells) is reported as 0.19 nM. It also gave an IC50 (DK-l cells) of 0.18 nM, an IC50 (SK-OV-3 cells) of 0.12 nM and an IC50 (Caov-3 cells) of 0.25 nM. For the same compound, the IC50 (OVCA 433 cells) was 0.16 nM, the IC50 (NIH:OVCAR-3 cells) was 0.06 nM and the IC50 (MCF-7 cells) was 0.2 nM. For the same compound, the IC50 (MG-63 cells) was 0.13 nM, the tumor growth ([1]; 25 μg/kg i.p. in saline, days 3-7 and 10-14, both sexes) was “prevented tumor growth almost completely in both sexes” and the “tumor growth after initial development period” value ([1]; 25 μg/kg i.p., days 3-7 and 10-14, after initial development into visible but very small tumors) was “failed to grow after an initial period of development into visible but very small tumors”. The tumor regression ([1]; 25 μg/kg i.p., after the initial development period) was “actually regressed”, the IC50 [2] was 0.3 nM and the IC50 [3] was 0.08 nM.
